The record followed here is paper PMC12349723, “Computationally accelerated identification of P-glycoprotein inhibitors” (PLOS One, 2025).

Where “and” joins values, the source holds several entries; their conditions need not be identical. Equal entries are not always repeated.

What all share (type): cell-based, human
One assay relates to DU145 cells. Kind of assay: MTT viability assay, non-P-gp overexpressing DU145 parental line, with or without PTX. To be noted: DU145 cells, 48 h. As to the method:
The chemotherapeutic sensitive DU145 human prostate cancer cells and the multidrug resistant sub-line, DU145-TXR, were generous gifts from Dr. Evan Keller (University of Michigan, Ann Arbor, MI). The MDR, P-gp overexpressing DU145-TXR cells were maintained under positive selection pressure by supplementing complete medium with 10 nM paclitaxel (Acros Organics, NJ). […] The MDR, P-gp overexpressing A2780-ADR cell line was maintained under positive selection pressure by supplementing complete medium with 100 nM doxorubicin (Fisher Scientific, NJ). The non-cancerous HFL1 (human lung fibroblast) cell line cell line was a generous gift from Dr. Robert Harrod (Southern Methodist University, Dallas, TX) and was maintained in complete F12K media consisting of F12K with 10% fetal bovine serum, 100 U/mL penicillin, and 100 µg/mL streptomycin (Gibco). Flasks and 96 well plates that were used with the non-cancerous line HFL1 were pre-treated with 0.1 mg/ml Collagen Type 1 (Gibco) and rinsed with PBS (Fisher).
Culture of the DU145, DU145-TXR, and HFL1 cell lines was performed as described in [8]. Culture of the A2780 and A2780-ADR cell lines was performed as described in [9]. MTT assays were performed as described in [8] with minor modifications. […] Data represent the mean of two separate experiments, with n = 3 samples per experiment (n = 6 total) (S4 Table).
(§1) MTT assays measure the reduction of yellow, water soluble 3-(4,5-dimethylthiazol-2-yl)-2,5-diphenyltetrazolium bromide (MTT) to blue, insoluble formazan crystals by cellular reductase processes in living cells. Cells were trypsinized from monolayers and seeded in complete medium in 96 well plates. Cancerous cell lines (DU145, DU145-TXR, A2780, A2780-ADR) were seeded at 3,000 cells per well in complete RPMI medium. The non-cancerous HFL1 line was seeded at 4,000 cells per well in complete F12K medium, in collagen-treated plates (Collagen Type 1, Gibco). Cells were incubated with experimental compounds for 48 hours at 37 °C and 5% CO2 in a humidified incubator. At 48 hours, MTT was added (20 µL/well of 5 mg/mL MTT in PBS) to each well. After incubation for 4 hours, the media was removed, and the formazan crystals were dissolved in 100 µL DMSO per well. Plates containing the semi-adherent A2780 or A2780-ADR lines were spun at 1400 rpm for 3 minutes prior to aspiration of media, and the addition of DMSO. Plates were shaken for 10 minutes at 500 rpm on an Orbital shaker (LabDoctor from MidSci, St Louis, MO). The absorbance was measured at 570 nm using a Bio-Tek Cytation 5 (Bio-Tek, Winooski, VT). The measured absorbance value was correlated with the number of metabolically active cells in that well, corrected for absorbance of media. The percent of cell viability (termed ‘survival’ here) was calculated as a percentage of survival of the control condition, which refers to vehicle-treated (DMSO as vehicle) cells, or vehicle-and-chemotherapeutic-treated cells, if testing a compound’s ability to re-sensitize cells to a chemotherapeutic. Percent survival was calculated using the following equation:
% Survival=100 × absorbance of experimental cells/mean absorbance of control treated cells
For DU145-TXR, DU145, HFL1 and A2780 cells – data are the mean ± one standard deviation, 8 samples per compound, from at least two independent trials per compound. […] For A2780-ADR cells, data are the mean ± one standard deviation with 12 samples per compound, from at least two independent trials per compound.
67 compounds were chosen from computational screens for testing in vitro. A) DU145-TXR cells were exposed to 15 µM experimental compound with or without 500 nM of the P-gp substrate and chemotherapeutic paclitaxel (PTX).
Background: Formazan colour is commonly taken as a measure of viable cells.

A further assay has as its system A2780 cells. As to the kind of experiment: MTT viability assay, parental A2780 cells, with or without PTX. To be noted: A2780 cells; for Mean % Survival: mean of 8 or 12 samples; for % Survival (individual sample): single samples. The procedure: (§2) The chemotherapeutic sensitive DU145 human prostate cancer cells and the multidrug resistant sub-line, DU145-TXR, were generous gifts from Dr. Evan Keller (University of Michigan, Ann Arbor, MI). The MDR, P-gp overexpressing DU145-TXR cells were maintained under positive selection pressure by supplementing complete medium with 10 nM paclitaxel (Acros Organics, NJ). In addition to the aforementioned cell lines, the chemotherapeutic sensitive A2780 ovarian cancer cells (93112519, Sigma) and the multidrug resistant A2780-ADR (93112520, Sigma) were maintained in complete RPMI media consisting of RPMI-1640 with L-glutamine, 10% fetal bovine serum (FBS; Corning), 100 U/mL penicillin and 100 μg/mL streptomycin in a humidified incubator at 37 °C and 5% CO2. The MDR, P-gp overexpressing A2780-ADR cell line was maintained under positive selection pressure by supplementing complete medium with 100 nM doxorubicin (Fisher Scientific, NJ). The non-cancerous HFL1 (human lung fibroblast) cell line cell line was a generous gift from Dr. Robert Harrod (Southern Methodist University, Dallas, TX) and was maintained in complete F12K media consisting of F12K with 10% fetal bovine serum, 100 U/mL penicillin, and 100 µg/mL streptomycin (Gibco). Flasks and 96 well plates that were used with the non-cancerous line HFL1 were pre-treated with 0.1 mg/ml Collagen Type 1 (Gibco) and rinsed with PBS (Fisher).
(§3) Culture of the DU145, DU145-TXR, and HFL1 cell lines was performed as described in [8]. Culture of the A2780 and A2780-ADR cell lines was performed as described in [9]. MTT assays were performed as described in [8] with minor modifications. LC-MS/MS accumulation assays were performed as described in {Nanayakkara, 2018 #173} [9] with some modifications. […] The inhibitor concentration was lowered to 15 µM here, as the goal of the study was to identify compounds that were effective in reversing MDR at low concentrations, and to determine if the expanded virtual-assisted methods improved on our first-draft attempt. Compounds 56–98 were pre-screened using Resazurin cell viability assays: cells were incubated with 15 µM compound with or without 500 nM PTX for 48 hours, after which cell survival was assessed similar to [39]. Data represent the mean of two separate experiments, with n = 3 samples per experiment (n = 6 total) (S4 Table). The top performing compounds from this initial screen were re-tested with MTT viability assays against DU145-TXR cells, as described below.
as §1, with “The percent of cell viability (termed ‘survival’ here) was calculated as a percentage of survival of the control condition, which refers to vehicle-treated (DMSO as vehicle) cells, or vehicle-and-chemotherapeutic-treated cells, if testing a compound’s ability to re-sensitize cells to a chemotherapeutic. Percent survival was calculated using the following equation:” left out

The next assay relates to DU145-TXR cells. As to the kind of experiment: MTT viability assay, reversal of MDR (re-sensitization to paclitaxel) in P-gp overexpressing DU145-TXR cells. To be noted: DU145-TXR; for % Survival, mean: mean of 8 samples. The procedure:
as §2, §3
as §1, with “The percent of cell viability (termed ‘survival’ here) was calculated as a percentage of survival of the control condition, which refers to vehicle-treated (DMSO as vehicle) cells, or vehicle-and-chemotherapeutic-treated cells, if testing a compound’s ability to re-sensitize cells to a chemotherapeutic. Percent survival was calculated using the following equation:” left out

In a further assay the test system is A2780-ADR cells. Kind of assay: MTT viability assay, reversal of MDR in P-gp overexpressing A2780-ADR cells. To be noted: A2780-ADR cells; for Mean % Survival: mean of 12 samples; for % Survival (individual sample): single samples (trials 1-3, samples 1-4). As to the method: as §2, §3
as §1, with “The percent of cell viability (termed ‘survival’ here) was calculated as a percentage of survival of the control condition, which refers to vehicle-treated (DMSO as vehicle) cells, or vehicle-and-chemotherapeutic-treated cells, if testing a compound’s ability to re-sensitize cells to a chemotherapeutic. Percent survival was calculated using the following equation:” left out

The mark [1] stands for this setting: single samples, 2 trials x 4 samples, listed as VPL.

As for `COc1ccc(CCN(C)CCCC(C#N)(c2ccc(OC)c(OC)c2)C(C)C)cc1OC` (stereo not drawn) [Verapamil, reference compound], in the assay on DU145 cells (mean of 8 samples), the “% Survival, Mean, 15 µM compound + 500 nM PTX” value is 8.6%. In the assay on DU145 cells (setting [1]), the “% Survival, 15 µM Compound alone (individual samples)” value is listed as 53% and the “% Survival, 15 µM compound + 500 nM PTX (individual samples)” value is 7%. In addition, the viability at 15 µM with DU145 cells (Homo sapiens, DU-145, 48 h, mean of 8 samples, read-out: % Survival, Mean, 15 µM Compound alone) is 45.5%.
As for `COc1ccc(CCN(C)CCCC(C#N)(c2ccc(OC)c(OC)c2)C(C)C)cc1OC` (stereo not drawn) [VER], the “Mean % Survival” value in the assay on A2780 cells (15 µM compound + 500 nM PTX) was 14.9%; with A2780 cells (15 µM compound alone) it was 75.9%; in the assay with A2780-ADR cells (15 µM compound + 500 nM PTX), 52.3%; in the assay on A2780-ADR cells (15 µM compound alone), 84.8%. For the same compound, the “% Survival (individual sample)” value in the assay with A2780 cells (15 µM compound + 500 nM PTX) is 17% and 18% and 12% and 50% and 11% and 10% and 9%; in the assay on A2780 cells (15 µM compound alone), 74% and 75% and 86% and 67% and 64% and 83% and 79%; in the assay with A2780-ADR cells (15 µM compound + 500 nM PTX), 58% and 57% and 53% and 42% and 41% and 51% and 47%; in the assay on A2780-ADR cells (15 µM compound alone) it was 80% and 82% and 85% and 92% and 94% and 95% and 89% and 81% and 77% and 66%. Further, the “% Survival, mean” value was 86.2% in the assay on DU145-TXR cells (15 µM Compound Alone) and 21.9% with DU145-TXR cells (15 µM compound + 500 nM PTX (Paclitaxel, Taxol)). Further, the “% Survival” value in the assay with DU145-TXR cells (15 µM Compound Alone, trial 1, sample 1) came out at 98%; with DU145-TXR cells (15 µM Compound Alone, trial 1, sample 2) it was 95%; in the assay with DU145-TXR cells (15 µM Compound Alone, trial 1, sample 3) it was 96%; with DU145-TXR cells (15 µM Compound Alone, trial 1, sample 4) it was 90%; with DU145-TXR cells (15 µM Compound Alone, trial 2, sample 1), 79%; with DU145-TXR cells (15 µM Compound Alone, trial 2, sample 2), 74%. The “% Survival” value stood at 72% in the assay with DU145-TXR cells (15 µM Compound Alone, trial 2, sample 3); 85% in the assay with DU145-TXR cells (15 µM Compound Alone, trial 2, sample 4); 19% in the assay on DU145-TXR cells (15 µM compound + 500 nM PTX (Paclitaxel, Taxol), trial 1, sample 1); 23% with DU145-TXR cells (15 µM compound + 500 nM PTX (Paclitaxel, Taxol), trial 1, sample 2); 29% with DU145-TXR cells (15 µM compound + 500 nM PTX (Paclitaxel, Taxol), trial 1, sample 3); 18% in the assay with DU145-TXR cells (15 µM compound + 500 nM PTX (Paclitaxel, Taxol), trial 1, sample 4). In addition, the “% Survival” value was 23% in the assay on DU145-TXR cells (15 µM compound + 500 nM PTX (Paclitaxel, Taxol), trial 2, sample 1); 20% in the assay with DU145-TXR cells (15 µM compound + 500 nM PTX (Paclitaxel, Taxol), trial 2, sample 2); 23% in the assay with DU145-TXR cells (15 µM compound + 500 nM PTX (Paclitaxel, Taxol), trial 2, sample 3); 21% in the assay with DU145-TXR cells (15 µM compound + 500 nM PTX (Paclitaxel, Taxol), trial 2, sample 4).
